# In patent US5618726A, “Biodegradable azo dyes” (priority 1994, dated 1997):
# How the values were obtained:
# [1] = tested on: S. chromofuscus A11 extracellular peroxidase; test: Oxidation of azo dyes by S. chromofuscus A11 crude enzyme preparation; assay type: biochemical, Streptomyces chromofuscus A11; conditions: pH 8, 37° C., H2O2
# Outline: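 Enzyme from 48 h S. chromofuscus A11 culture supernatant, concentrated, ammonium sulfate-precipitated, dialyzed in 20 mM HEPES pH 8; yellow Sephadex G-25 fraction used. Reaction started with 100 μl 50 mM H2O2, followed 1 min at 37° C; controls without H2O2 or with 25 μM KCN.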
# [2] = target: T1, horseradish peroxidase type II (Armoracia rusticana, UniProt P00433); test: Oxidation of azo dyes by horseradish peroxidase preparation; assay type: biochemical; conditions: pH 8, 37° C., H2O2
# T1 sequence (P00433 31-338): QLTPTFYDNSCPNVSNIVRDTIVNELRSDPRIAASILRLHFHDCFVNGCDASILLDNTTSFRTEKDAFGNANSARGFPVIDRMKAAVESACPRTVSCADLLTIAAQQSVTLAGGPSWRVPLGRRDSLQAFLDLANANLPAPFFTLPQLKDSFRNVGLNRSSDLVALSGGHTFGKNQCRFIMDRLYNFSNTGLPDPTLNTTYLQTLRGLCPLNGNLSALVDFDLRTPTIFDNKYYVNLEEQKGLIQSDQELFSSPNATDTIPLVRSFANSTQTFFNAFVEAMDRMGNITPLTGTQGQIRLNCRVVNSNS
# Description: The reaction was started with the addition of 100 μl of 50 mM H2 O2 and was followed for 1 min at 37° C. Controls were run with no addition of H2 O2 or with the addition of the hemeperoxidase inhibitor KCN (final concentration 25 μM).
# S. diastaticus A13 = assay type: cell-based; conditions: streptomyces diastaticus a13 culture, 336 h
# Source text: (§1) Microbiol., 1984, 130:2905-2913.
# (§2) Replicate sterile controls also were run in each experiment.
# S. rochei A10 = assay type: cell-based; conditions: streptomyces rochei a10 culture, 336 h
# Source text: as §1, §2
# S. diastaticus A12 = assay type: cell-based; conditions: streptomyces diastaticus a12 culture, 336 h
# Source text: as §1, §2
# [3] = tested on: Phanerochaete chrysosporium; test: Substrate removal / decolorization by P. chrysosporium culture; assay type: cell-based; conditions: for % Decolorization, P. chrysosporium: 14 days
# Description: Environ. Microbiol., 1981, 42:290-296), with the addition of 75 mg adenine (6-aminopurine) and 27 mg L-phenylalanine-per-liter. This addition accelerated the growth of the fungus without inhibiting ligninase activity. […] […] Cultures were incubated at 37° C. for 7 to 15 days with shaking (250 rpm). Solid agar media were also employed.
# ligninase = test: Oxidation of dyes by P. chrysosporium ligninase (crude preparation); assay type: biochemical, Phanerochaete chrysosporium; conditions: crude enzyme, conditions specific for ligninase
# Outline: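 Crude P. chrysosporium ligninase oxidation of dyes, assayed by a previously reported method; conditions as for acid yellow 9, readings every 30 s for up to 15 minutes.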
# Mn(II)-peroxidase = test: Oxidation of dyes by P. chrysosporium Mn(II)-peroxidase; assay type: biochemical, Phanerochaete chrysosporium; conditions: crude enzyme, conditions specific for Mn(II)-peroxidase
# S. chromofuscus A11 = conditions: for Decolorization of growth medium by S. chromofuscus A11: both 50 and 100 ppm; for Degradation (%) after Streptomyces cultivation, strain A11: streptomyces chromofuscus a11 culture, 336 h
# Description: as §1, §2
# The Streptomyces were grown on the same media and under the same conditions as previously described. […] Thus, the spectrophotometric assays for substrates 1-12 were carried out at their specific isobastic points. Degradation was calculated as percent of substrates removed from culture broth, considering the evaporation factor (around 10%).
# [4] = beginning concentration 100 ppm
# [5] = beginning concentration 150 ppm
# [6] = beginning concentration 200 ppm
# [7] = beginning concentration 300 ppm
SMILES,"Oxidation rate of azo dyes, S. chromofuscus peroxidase [1]","Oxidation rate of azo dyes, Horseradish peroxidase [2]","Degradation (%) after Streptomyces cultivation, strain A13 (S. diastaticus A13)","Degradation (%) after Streptomyces cultivation, strain A10 (S. rochei A10)","Degradation (%) after Streptomyces cultivation, strain A12 (S. diastaticus A12)","Concentration of substrate after ten days cultivation with P. chrysosporium [3, 4]","Concentration of substrate after ten days cultivation with P. chrysosporium [3, 5]","Concentration of substrate after ten days cultivation with P. chrysosporium [3, 6]","Concentration of substrate after ten days cultivation with P. chrysosporium [3, 7]","% Decolorization, P. chrysosporium ([3]; initial concn 150 ppm)","% Decolorization, P. chrysosporium ([3]; initial concn 300 ppm)","Oxidation rate of azo dyes, P. chrysosporium Ligninase (ligninase)","Oxidation rate of azo dyes, P. chrysosporium Mn-peroxidase (Mn(II)-peroxidase)",Decolorization of growth medium by S. chromofuscus A11 (S. chromofuscus A11),"Degradation (%) after Streptomyces cultivation, strain A11 (S. chromofuscus A11)"
Cc1cc(N=Nc2ccc(S(=O)(=O)O)cc2)cc(C)c1O [compound 3],17.20 μmoles per minute per ml,30.68 μmoles per minute per ml,10%,68%,39%,0.358 ppm,1.223 ppm,1.894 ppm,114.772 ppm,96%,97%,0.42 μmoles per minute per ml,16.37 μmoles per minute per ml,significantly decolorized,73%
COc1cc(N=Nc2ccc(S(=O)(=O)O)cc2)cc(OC)c1O [compound 4],15.19 μmoles per minute per ml,27.04 μmoles per minute per ml,8%,79%,39%,1.637 ppm,3.763 ppm,4.218 ppm,16.323 ppm,93%,92%,0.22 μmoles per minute per ml,14.33 μmoles per minute per ml,significantly decolorized,83%
Cc1cc(N=Nc2ccc(S(=O)(=O)O)cc2)ccc1O [compound 5],2.00 μmoles per minute per ml,11.94 μmoles per minute per ml,8%,9%,3%,6.084 ppm,9.870 ppm,14.500 ppm,22.680 ppm,90%,87%,0.00 μmoles per minute per ml,3.54 μmoles per minute per ml,significantly decolorized,20%
CCC(C)c1cc(N=Nc2ccc(S(=O)(=O)O)cc2)ccc1O (stereo not drawn) [compound 10],0.78 μmoles per minute per ml,0.35 μmoles per minute per ml,6%,11%,7%,8.135 ppm,15.279 ppm,46.588 ppm,42.897 ppm,90%,92%,0.51 μmoles per minute per ml,2.86 μmoles per minute per ml,significantly decolorized,16%
